Source: patent US8748369B2, “Use of targeted nitroxide agents in bone healing” (University of Pittsburgh-Of the Commonwealth System of …, priority 2009, dated 2014)
Where “and” joins values, the source holds several entries; their conditions need not be identical. Equal values may be shown once. Where a SMILES comes first, the peptide text is derived from it. [ ]: non-standard residue; d: D form. The star is where a group is joined. NH(TEMPO-4-yl) = CC1(C)CC(N*)CC(C)(C)N1[O]; Orn = NCCC[C@H](N)C(=O)O; Cbz = O=C(OCc1ccccc1)*; Boc = CC(C)(C)OC(=O)*

Legend:
[1] = test system: C57BL/6NHsd mice, tibial bone wounds; assay: Unicortical tibial bone wound healing with or without 20 Gy limb irradiation; assay type: in vivo, mouse
mouse embryonic cells = assay: Gamma irradiation induced superoxide generation and cardiolipin oxidation; assay type: cell-based; details: 10 Gy, 20 μM
Experimental: Oxidation-dependent fluorogenic dye, DHE was used to evaluate intracellular production of superoxide radicals. DHE is cell permeable and, in the presence of superoxide, is oxidized to fluorescent ethidium which intercalates into DNA. Briefly, cells were treated with 5 μM DHE for 30 min at the end of incubation. Cells were then collected by trypsinization and resuspended in PBS. The fluorescence of ethidium was measured using a FACScan flow cytometer (Becton-Dickinson, Rutherford, N.J.) supplied with the CellQuest software. Mean fluorescence intensity from 10,000 cells was acquired using a 585/42 nm bandpass filter.
CL hydroperoxides were determined by fluorescence HPLC of products formed in MP-11-catalyzed reaction with a fluorogenic substrate, Amplex Red. […] Shimadzu LC-100AT vp HPLC system equipped with fluorescence detector (RF-10Axl, Ex/Em=560/590 nm) and autosampler (SIL-10AD vp) were used for the analysis of products separated by HPLC (Eclipse XDB-C18 column, 5 μm, 150×4.6 mm) Mobile phase was composed of NaH2PO4 (25 mM, pH 7.0)/methanol (60:40 v/v).
(A) superoxide generation. […] Ethidium fluorescence was analyzed using a FACScan flow cytometer supplied with CellQuest software. Mean fluorescence intensity from 10,000 cells was acquired using a 585-nm bandpass filter. […] Cardiolipin hydroperoxides were determined using a fluorescent HPLC-based Amplex Red assay. […]

[2] = Topical and transdermal absorption through mouse skin (Bronaugh diffusion cell, EPR); assay type: in vitro ADME; details: preliminary experiment
From the text: A small piece of skin (2 cm^2) was placed in a Bronaugh style flow-through diffusion cell system (PermeGear, Riegelsville, Pa.) (FIG. 22). It was then sandwiched between two pieces of the inert polymer Kel-F and clamped shut to prevent leakage. The epidermal side faces upward and is exposed to the donor solution (test solution), and the dermal side is in contact with the receptor fluid. The exposed surface area is 0.79 cm^2 (circular chamber with 1 cm diameter). The skin forms a water-tight seal in the flow through chamber so the receiving fluid (PBS+25% ethanol) on the dermal side will contain the XJB-5-125 only if it has penetrated through the skin. The receiver chamber was perfused with this buffer that then passes to a fraction collector via Teflon tubing. The PBS+25% ethanol was used because it is an effective sink for hydrophobic compounds and produces better in vitro/in vivo correlations than other receiver solutions. The skin was maintained at 32° C. by placing the chamber in a metal block heated via a recirculating water bath. […]
EPR spectra were recorded at 334.7 mT, center field; 20 mW, power; 0.079 mT, field modulation; 5 mT, sweep width; 400 and 4000, receiver gain; 0.1 s, time constraint. […]
Further, the total transdermal absorption after 24 hours and the level of XJB-5-125 present in the viable skin can be successfully measured using the techniques described herein. […]

[3] = test system: mouse embryonic cells (MEC); assay: ActD-induced apoptosis in MECs (PS externalization, caspase-3, DNA fragmentation); assay type: cell-based
From the text: Cells that annexin V-positive and PI-negative were considered apoptotic.

Row | Structure (SMILES) | bone wound healing in the absence of RT ([1]; 0 Gy) | Hole Diameter, mean ± SEM ([1]; 0 Gy, Day 7 post-drilling) | Hole Diameter, mean ± SEM ([1]; 0 Gy, Day 14 post-drilling) | Hole Diameter, mean ± SEM ([1]; 0 Gy, Day 21 post-drilling) | Hole Diameter, mean ± SEM ([1]; 0 Gy, Day 28 post-drilling) | Hole Diameter, mean ± SEM ([1]; 20 Gy, Day 7 post-drilling) | Hole Diameter, mean ± SEM ([1]; 20 Gy, Day 14 post-drilling) | Hole Diameter, mean ± SEM ([1]; 20 Gy, Day 21 post-drilling) | Hole Diameter, mean ± SEM ([1]; 20 Gy, Day 28 post-drilling) | RT-induced delay in osseus wound healing ([1]; given prior to 20 Gy RT) | histology: bone fill of wounds versus irradiated mice ([1]; pre-treated prior to irradiation) | gamma irradiation induced cardiolipin peroxidation (mouse embryonic cells) | gamma irradiation induced superoxide generation (mouse embryonic cells; 10-min before or 1-h after irradiation) | penetration of intact skin [2] | concentration range of activity in cells (dose-dependent attenuation of ActD-induced PS externalization) [3]
1 | CC(C)C[C@@H](/C=C/CC(=O)NC1CC(C)(C)N([O])C(C)(C)C1)NC(=O)OC(C)(C)C [JP4-039, (S,E)-5-(tert-Butoxycarbonylamino)-7-methyloct-3-enoic acid-TEMPO] | conferred more rapid healing | 1.02 ± 0.07 mm | 0.6±0.05 mm and 0.55±0.03 mm | 0.47 ± 0.04 mm | 0.23 ± 0.04 mm | 1.14 ± 0.04 mm | 0.92 ± 0.08 mm | 0.5±0.05 mm and 0.51±0.05 mm | 0.4±0.04 mm and 0.37±0.04 mm | ameliorated this RT-induced delay | more bone fill | – | – | – | –
2 | CC(C)C[C@H](NC(=O)OC(C)(C)C)C(=O)N[C@H](Cc1ccccc1)C(=O)N1CCC[C@H]1C(=O)N[C@H](C(=O)N[C@@H](CCCNC(=O)OCc1ccccc1)C(=O)NC1CC(C)(C)N([O])C(C)(C)C1)C(C)C [XJB-5-125] (Boc-L[dF]PV[Orn](Cbz)-{NH(TEMPO-4-yl)}) | – | – | – | – | – | – | – | – | – | – | – | protects | protects | can sufficiently penetrate intact skin | 2.5 to 20 µM
